Source: paper PMC9381947 (Antiviral Research, 2022)
“Also recorded” adds a separate entry of the source. Like-named read-outs stand apart in the source and are kept apart here.

How the values were obtained:
[1] = target: T1, SARS-CoV-2 NSP13 helicase (Severe acute respiratory syndrome coronavirus 2, UniProt P0DTD1); test: biochemical; conditions: for NSP13 helicase inhibition relative to PUG: compared with PUG; for inhibition at 20 µM: read-out: inhibitory activity against NSP13, confirmation screen
[2] = target: NSP13/DNA complex (Severe acute respiratory syndrome coronavirus 2, UniProt P0DTD1); test: Electrophoretic mobility shift assay; format: biochemical, SARS-CoV-2; conditions: pre-incubation of NSP13 with compound, FAM-labeled 5ˊ flap DNA
[3] = target: T1, SARS-CoV-2 NSP13 helicase; test: Gel-based DNA unwinding assay; format: biochemical; conditions: PUG at concentrations over 1 μM
[4] = target: SARS-CoV-2 NSP13 ATPase activity (Severe acute respiratory syndrome coronavirus 2, UniProt P0DTD1); test: Luciferase-coupled ATP assay; format: biochemical
[5] = test system: human adenovirus (HAdV) type 7 (HAdV-7); test: Antiviral assay in A549 cells; conditions: 48 h, qRT-PCR, listed as PUG
[6] = target: SARS-CoV-2 NSP13 (Severe acute respiratory syndrome coronavirus 2, UniProt P0DTD1); test: Surface plasmon resonance; format: binding; conditions: SPR, NSP13 coupled to CM5 chip
[7] = IC50, DNA unwinding activity of NSP13, text and figures
[8] = read-out: IC50 against NSP13 helicase activity, Table 1
[9] = IC50 against NSP13 helicase activity, Table 1
[10] = read-out: IC50 against NSP13 helicase activity

Compound: O=C1OC[C@H]2OC(O)[C@H](O)[C@@H](O)[C@@H]2OC(=O)c2cc(O)c(O)c(O)c2-c2c(O)c(O)c3oc(=O)c4c(c(O)c(O)c5oc(=O)c2c3c54)-c2c1cc(O)c(O)c2O (mixture of isomers) [PUL, punicalin]
- IC50 [1, 7]: ~540 nM
- NSP13 helicase inhibition relative to PUG [1]: comparable inhibitory activity
- NSP13/DNA complex formation (EMSA) [2]: reduced the complex formation in a concentration-dependent manner
- helicase activity of NSP13 in gel-based DNA unwinding assay [3]: slightly weak inhibitory effect than PUG

Compound: O=c1cc(-c2ccccc2)oc2cc(O)c(O)c(O)c12 [Baicalein, reference compound]
- inhibition at 20 µM [1]: > 70%

Compound: O=C(N/N=C/c1cc(O)c(O)cc1O)c1cc2ccccc2cc1O [Dyngo-4a, reference compound]
- IC50 [1, 8]: 630 nM

Compound: O=c1oc2c(O)c(O)cc3c(=O)oc4c(O)c(O)cc1c4c23 [EA, ellagic acid]
- IC50 ([1]; IC50, DNA unwinding activity of NSP13, text): ~2800 nM
- NSP13 helicase inhibition relative to PUG [1]: about six times weaker
- inhibition of ATP hydrolysis by NSP13 ([4]; 10 μM ATP): much weaker inhibition
- NSP13/DNA complex formation (EMSA) [2]: reduced the complex formation in a concentration-dependent manner; also recorded: much weaker inhibition

Compound: Oc1cc(O)c2c(c1)O[C@H](c1cc(O)c(O)c(O)c1)[C@H](O)[C@H]2c1c(O)cc(O)c2c1O[C@H](c1cc(O)c(O)c(O)c1)[C@H](O)[C@H]2c1c(O)cc(O)c2c1O[C@H](c1cc(O)c(O)c(O)c1)[C@H](O)C2 [Katacine]
- IC50 [1, 9]: 5980 nM

Compound: CC(C)[C@H](NC(=O)CCCCCN1C(=O)C=CC1=O)C(=O)N[C@@H](CCCNC(N)=O)C(=O)Nc1ccc(COC(=O)Oc2ccc([N+](=O)[O-])cc2)cc1 [MC-Val-Cit-PABC-PNP]
- IC50 [1, 10]: 2450 nM

Compound: O=c1c(O)c(-c2cc(O)c(O)c(O)c2)oc2cc(O)cc(O)c12 [Myricetin, reference compound]
- inhibition at 20 µM [1]: > 70%

Compound: O=C1O[C@@H]2[C@@H](OC(=O)c3cc(O)c(O)c(O)c3-c3c1cc(O)c(O)c3O)[C@H](O)O[C@@H]1COC(=O)c3cc(O)c(O)c(O)c3-c3c(O)c(O)c4oc(=O)c5c(c(O)c(O)c6oc(=O)c3c4c65)-c3c(cc(O)c(O)c3O)C(=O)O[C@@H]21 [Punicalagin, 2,3-hexahydroxydiphenoyl-gallagyl-D-glucose]
- IC50 [1, 7]: 427 nM
- IC50 [1, 9]: 430 nM
- antiviral effect against HAdV-7 [5]: did not show detectable antiviral effects
- Kd [6]: 21.6 nM
- Km of NSP13 ATPase ([4]; with increasing concentrations of PUG): increased
- helicase activity of NSP13 in gel-based DNA unwinding assay [3]: nearly abolished

Compound: CC(C)c1cc2c(c(O)c1O)[C@@]13CCCC(C)(C)[C@@H]1[C@H](OC3=O)[C@H]2O [Rosmanol]
- IC50 [1, 9]: 8930 nM

Compound: O=c1cc(-c2ccc(O)cc2)oc2cc(O)c(O)c(O)c12 [Scutellarein, reference compound]
- inhibition at 20 µM [1]: > 70%

Compound: O=C(O)CSc1cc(NS(=O)(=O)c2ccc(Br)cc2)c2ccccc2c1O [UMI-77, reference compound]
- IC50 [1, 10]: 4380 nM

Compound: O=C([O-])c1cc(=O)[nH]c(=O)[nH]1.O=C([O-])c1cc(=O)[nH]c(=O)[nH]1.[Zn+2] [Zinc Orotate]
- IC50 [1, 8]: 4120 nM

Compound: Bismuth subsalicylat [reference compound]
- inhibitory activity against NSP13, confirmation screen ([1]; 20 µM): more than 70%

Compound: Tannic acid
- IC50 [1, 8]: 1250 nM
